Values after ≈ are worked out from the molar mass of the structure shown.
Columns and labels:
[1] = system: Alcaligenes faecalis IFO 13111; test: In vitro antimicrobial test (agar dilution method); format: cell-based; details: Brucella agar with 7% horse blood, 37° C., 4 days
Experimental: (§1) Using 5 strains of Helicobacter pylori, 19 other bacterial species and 2 yeast species as test strains, the antimicrobial activities of various compounds were determined by the method described below (agar dilution method). The test compound was dissolved in dimethyl sulfoxide; this solution was 2-fold diluted step by step with sterilized distilled water to yield test samples. Two milliliters of each test sample was mixed with 18 ml of Brucella agar supplemented with 7% horse blood as a medium to prepare a determination plate. Helicobacter pylori was subjected to shaking culture at 37° C. in a gas pack jar incorporating CampyPak™ (BBL^R Beckton Dickinson Microbiology Systems) for 20 hours, using Brucella broth medium supplemented with 2.5% fetal bovine serum, to yield a seed inoculum. The other test microorganisms were each cultured at 37° C. for 20 hours, using Brucella broth medium, to yield respective seed inocula.
(§2) Five microliters of each seed inoculum, previously adjusted to about 10^6 CFU/ml using Brucella broth medium supplemented with 2.5% fetal bovine serum was inoculated to each determination plate, and cultured at 37° C. in a gas pack jar incorporating CampyPak™ and water-soaked cotton absorbent for 4 days. After cultivation, strain growth was macroscopically examined; the minimum concentration for the absence of strain growth was taken as the MIC value (minimum inhibitory concentration) of the test compound.

Bacillus cereus IFO 3514 = test: In vitro antimicrobial test (agar dilution method); format: cell-based; details: Brucella agar with 7% horse blood, 37° C., 4 days
Experimental: as §1, §2

[2] = system: Bacillus megaterium IFO 12108; test: In vitro antimicrobial test (agar dilution method); format: cell-based; details: Brucella agar with 7% horse blood, 37° C., 4 days
Experimental: as §1, §2

[3] = system: Bacillus pumilus IFO 3813; test: In vitro antimicrobial test (agar dilution method); format: cell-based; details: Brucella agar with 7% horse blood, 37° C., 4 days
Experimental: as §1, §2

[4] = system: Bacillus subtilis PCI 219; test: In vitro antimicrobial test (agar dilution method); format: cell-based; details: Brucella agar with 7% horse blood, 37° C., 4 days
Experimental: as §1, §2

[5] = system: Candida albicans IFO 0583; test: In vitro antimicrobial test (agar dilution method); format: cell-based; details: Brucella agar with 7% horse blood, 37° C., 4 days
Experimental: as §1, §2

[6] = system: Citrobater freundii IFO 12681; test: In vitro antimicrobial test (agar dilution method); format: cell-based; details: Brucella agar with 7% horse blood, 37° C., 4 days
Experimental: as §1, §2

Escherichia coli K12 = test: In vitro antimicrobial test (agar dilution method); format: cell-based; details: Brucella agar with 7% horse blood, 37° C., 4 days
Experimental: as §1, §2

[7] = system: Escherichia coli NIHJ JC-2; test: In vitro antimicrobial test (agar dilution method); format: cell-based; details: Brucella agar with 7% horse blood, 37° C., 4 days
Experimental: as §1, §2

[8] = system: Klebsiella pneumoniae IFO 3317; test: In vitro antimicrobial test (agar dilution method); format: cell-based; details: Brucella agar with 7% horse blood, 37° C., 4 days
Experimental: as §1, §2

[9] = system: Micrococcus flavus IFO 3242; test: In vitro antimicrobial test (agar dilution method); format: cell-based; details: Brucella agar with 7% horse blood, 37° C., 4 days
Experimental: as §1, §2

[10] = system: Micrococcus luteus IFO 12708; test: In vitro antimicrobial test (agar dilution method); format: cell-based; details: Brucella agar with 7% horse blood, 37° C., 4 days
Experimental: as §1, §2

[11] = system: Proteus mirabilis ATCC 21100; test: In vitro antimicrobial test (agar dilution method); format: cell-based; details: Brucella agar with 7% horse blood, 37° C., 4 days
Experimental: as §1, §2

[12] = system: Proteus morganii IFO 3168; test: In vitro antimicrobial test (agar dilution method); format: cell-based; details: Brucella agar with 7% horse blood, 37° C., 4 days
Experimental: as §1, §2

[13] = system: Proteus vulgaris IFO 3045; test: In vitro antimicrobial test (agar dilution method); format: cell-based; details: Brucella agar with 7% horse blood, 37° C., 4 days
Experimental: as §1, §2

[14] = system: Pseudomonas aeruginosa IFO 3080; test: In vitro antimicrobial test (agar dilution method); format: cell-based; details: Brucella agar with 7% horse blood, 37° C., 4 days
Experimental: as §1, §2

[15] = system: Saccharomyces cerevisiae IFO 0209; test: In vitro antimicrobial test (agar dilution method); format: cell-based; details: Brucella agar with 7% horse blood, 37° C., 4 days
Experimental: as §1, §2

[16] = system: Salmonella enteritidis IFO 3313; test: In vitro antimicrobial test (agar dilution method); format: cell-based; details: Brucella agar with 7% horse blood, 37° C., 4 days
Experimental: as §1, §2

[17] = system: Salmonella typhimurium IFO 12529; test: In vitro antimicrobial test (agar dilution method); format: cell-based; details: Brucella agar with 7% horse blood, 37° C., 4 days
Experimental: as §1, §2

[18] = system: Serratia marcescens IFO 3046; test: In vitro antimicrobial test (agar dilution method); format: cell-based; details: Brucella agar with 7% horse blood, 37° C., 4 days
Experimental: as §1, §2

[19] = system: Staphylococcus aureus FDA 209P; test: In vitro antimicrobial test (agar dilution method); format: cell-based; details: Brucella agar with 7% horse blood, 37° C., 4 days
Experimental: as §1, §2

[20] = system: Helicobacter pylori NCTC 11637; test: In vitro antimicrobial test (agar dilution method); format: cell-based; details: Brucella agar with 7% horse blood, 37° C., 4 days
H. pylori NCTC 11916 = test: In vitro antimicrobial test (agar dilution method); format: cell-based, Helicobacter pylori; details: Brucella agar with 7% horse blood
Experimental: as §1
Five microliters of each seed inoculum, previously adjusted to about 10^6 CFU/ml using Brucella broth medium supplemented with 2.5% fetal bovine serum was inoculated to each determination plate, and cultured at 37° C. in a gas pack jar incorporating CampyPak™ and water-soaked cotton absorbent for 4 days. […]

H. pylori CPY 433 = test: In vitro antimicrobial test (agar dilution method); format: cell-based, Helicobacter pylori; details: Brucella agar with 7% horse blood
H. pylori TN 2 = test: In vitro antimicrobial test (agar dilution method); format: cell-based, Helicobacter pylori; details: Brucella agar with 7% horse blood
H. pylori TN 58 = test: In vitro antimicrobial test (agar dilution method); format: cell-based, Helicobacter pylori; details: Brucella agar with 7% horse blood
[21] = system: Helicobacter pylori TN2GF4; test: In vivo antimicrobial activity test in infected mongolian gerbils; details: for Clearance Rate: mongolian gerbils infected with H. pylori TN2GF4; for Bacterial Detection: mean±standard deviation
Experimental: After mongolian gerbils (MGS/Sea, male, 6 weeks of age) were fasted for 24 hours, Helicobacter pylori TN2GF4 was inoculated to the stomach at 10^7.08 per mongolian gerbil. Starting at 11 days after infection, a 3, 10, 30, or 100 mg/kg suspension of the test compound in a 0.5% aqueous solution of methyl cellulose was orally administered twice daily (morning and evening) for 3 days. On the day after final administration, the stomach of each infected mongolian gerbil was excised and disrupted; a series of 10-fold dilutions of the stomach homogenate were each inoculated to modified Skirrow's medium supplemented with activated charcoal and cultured under microaerophilic conditions at 37° C. for 4 days, after which clearance effect was assessed on the basis of the presence or absence of bacterial growth. Bacterial cell counts are expressed in mean±standard deviation after Dunnett's test against the control group.
In Table 4, ** indicates p<0.01.

[22] = 3 mg/kg orally twice daily for 3 days

## CN=C1NC(=O)[C@H]([C@H](C)c2c[nH]c3ccccc23)O1 [Indolmycin, indolmycin]
[1]
  MIC: >100 mg/L
Bacillus cereus IFO 3514
  MIC: >100 mg/L
[2]
  MIC: >100 mg/L
[3]
  MIC: >100 mg/L
[4]
  MIC: >100 mg/L
[5]
  MIC: >100 mg/L
[6]
  MIC: >100 mg/L
Escherichia coli K12
  MIC: >100 mg/L
[7]
  MIC: >100 mg/L
[8]
  MIC: >100 mg/L
[9]
  MIC: >100 mg/L
[10]
  MIC: 12.5 mg/L (≈ 48.6 µM)
[11]
  MIC: >100 mg/L
[12]
  MIC: >100 mg/L
[13]
  MIC: >100 mg/L
[14]
  MIC: >100 mg/L
[15]
  MIC: >100 mg/L
[16]
  MIC: >100 mg/L
[17]
  MIC: >100 mg/L
[18]
  MIC: >100 mg/L
[19]
  MIC: >100 mg/L
[20]
  MIC: 0.006 mg/L (≈ 0.0233 µM)
H. pylori NCTC 11916
  MIC: 0.013 mg/L (≈ 0.0505 µM)
H. pylori CPY 433
  MIC: 0.013 mg/L (≈ 0.0505 µM)
H. pylori TN 2
  MIC: 0.006 mg/L (≈ 0.0233 µM)
H. pylori TN 58
  MIC: 0.025 mg/L (≈ 0.0972 µM)
[21]; [22]
  Clearance Rate: 0/5 (0) %
  Bacterial Detection: 4.61 ± 1.84 log CFU/gastric wall
[21]; 10 mg/kg or higher, mongolian gerbil
  gastric bacterial cell count (in words): reduced the mongolian gerbil gastric bacterial cell count with dose dependency
[21]; 10 mg/kg orally twice daily for 3 days
  Clearance Rate: 0/5 (0) %
[21]; 10 mg/kg orally twice daily for 3 days, ** p<0.01 vs control
  Bacterial Detection: 2.76 ± 1.04** log CFU/gastric wall
[21]; 30 mg/kg orally twice daily for 3 days
  Clearance Rate: 1/4 (25) %
[21]; 30 mg/kg orally twice daily for 3 days, listed as indolmycin
  Clearance Rate: 25%
[21]; 30 mg/kg orally twice daily for 3 days, ** p<0.01 vs control
  Bacterial Detection: 1.96 ± 0.78** log CFU/gastric wall
[21]; 100 mg/kg orally twice daily for 3 days
  Clearance Rate: 4/5 (80) %
[21]; 100 mg/kg orally twice daily for 3 days, listed as indolmycin
  Clearance Rate: 80%
[21]; 100 mg/kg orally twice daily for 3 days, ** p<0.01 vs control
  Bacterial Detection: 1.48 ± 0.00** log CFU/gastric wall

## C[C@H](c1c[nH]c2ccccc12)[C@@H]1OC(N(C)C(=O)OCc2ccccc2)=NC1=O [Example 2, (5S)-2-(N-Benzyloxycarbonyl-N-methyl)amino-5[(1R)-1-(indol-3-yl)ethyl]-2-oxazolin-4-one]
[20]
  MIC: 0.025 mg/L (≈ 0.0639 µM)
H. pylori CPY 433
  MIC: 0.05 mg/L (≈ 0.128 µM)
H. pylori TN 2
  MIC: 0.025 mg/L (≈ 0.0639 µM)
H. pylori TN 58
  MIC: 0.05 mg/L (≈ 0.128 µM)

Source: patent US6414003B1, “Oxazolone derivatives and their use as anti-helicobacter pylori agents” (Takeda Chemical Industries, Ltd., priority 1996, dated 2002)
